{
  "source": "patent US20040023386A1",
  "about": "“Modulation of nitric oxide synthase by PKC” (Joslin Diabetes Center, Inc., a Massachusetts corporation, priority 2000, published 2004)",
  "key": {"[1]": {"tested_on": "eNOS mRNA", "test": "eNOS mRNA level in BAECs (Northern blot)", "type": "cell-based, bovine", "procedure": "(§1) Bovine aortic endothelial cells (BAECs) from passages 4 to 10 were isolated. Confluent cells were placed in DMEM containing 1% platelet-deprived horse serum (PDHS) for 24 hours before being studied and pretreated with the following inhibitors: phosphatidylinositol-3 (PI-3) kinase-selective inhibitors wortmannin (Sigma Chemical Co) and LY294002 (BIOMOL Research Laboratories), protein kinase C (PKC) activator phorbol-12-myristate-13-acetate (PMA) (Sigma Chemical Co), general PKC inhibitor GF109203X (GFX) (Calbiochem-Novabiochem Corp), and PKCβ isoform-selective inhibitor LY333531 (Lilly Inc). Cells were then stimulated with insulin (Sigma Chemical Co), recombinant insulin-like growth factor-1 (IGF-1) (Upstate Biotechnology), and LPC (Avanti Polar Lipid) or alpha-IR3 antibodies.\n(§2) Total RNA from cultured BAECs, PKCβ1-overexpressed BAECs, and vascular stroma from the epididymal fat pads of Zucker rats were isolated according to the guanidinium thiocyanate-phenol-chloroform method with TRI Reagent (Molecular Research Center) and solution D containing 4 mol/L guanidinium thiocyanate, 25 mmol/L sodium citrate, pH 7.0, 0.5% sarcosyl, and 0.1 mol/L 2-mercaptoethanol. Total RNA (20 μg) was fractionated and hybridized to 650-bp cDNA fragments of rat eNOS (kindly provided by Dr Mark A. Perella and Arthur M. E. Lee, Harvard School of Public Health, Boston, Mass.), which were labeled with the use of a DNA labeling system (Multiprime; Amersham Corp). The quantification of eNOS mRNA levels was performed with a PhosphorImager (Molecular Dynamics) and normalized to 36B4 mRNA."}, "[2]": {"tested_on": "IRS-2-associated PI-3 kinase", "test": "Assay of IRS-2-associated PI-3 kinase activity in BAECs", "type": "cell-based, bovine", "procedure": "After preincubation with or without 100 nmol/L PMA for 30 minutes, BAECs were stimulated with insulin (100 nmol/L) for 5 minutes. Cells were processed as described previously for this assay. Aliquots of proteins from the supernatant were immunoprecipitated with 10 μL/ml anti-alpha-insulin receptor substrates (IRS)-2 antibodies (kindly provided by Dr Morris F. White, Joslin Diabetes Center, Boston, Mass) for 2 hours and bound to protein A-Sepharose beads at 4° C. as described previously. The lipids were quantified with a PhosphorImager."}, "[3]": {"tested_on": "eNOS mRNA", "test": "eNOS mRNA level in adenovirus-infected BAECs (PKCβ1 or β-Gal)", "type": "cell-based, bovine", "settings": "for increase of eNOS mRNA levels: LPC 100 μmol/L", "procedure": "The construction of a replication-deficient recombinant adenovirus for PKCβ1 expression was performed as described in Becker et al. Methods Cell Biol. 1994;43:161-189. Adenovirus-mediated gene transfer to confluent BAECs was performed through a 1-hour adenoviral infection of 10^9 pfu/mL at 37° C. in DMEM containing 10% PDHS. The infected BAECs were then incubated in DMEM containing 1% PDHS for 24 hours, incubated with or without insulin (100 nmol/L) for an additional 6 hours, and harvested. AdV-CMV-PKCβ1- or β-galactosidase (β-Gal)-infected BAECs were assessed for PKC activity and protein expression as previously described.\nas §2"}, "[4]": {"tested_on": "eNOS mRNA", "test": "eNOS mRNA level in human umbilical endothelial cells", "type": "cell-based", "settings": "IGF-1 25 nmol/L"}, "[5]": {"tested_on": "NOS activity", "test": "Assay of NOS activity in BAECs", "type": "cell-based, bovine", "settings": "insulin 100 nmol/L", "procedure": "The amount of NOS activity produced by BAECs was measured by using an NOS Detect assay kit (Transduction Laboratories) according to the manufacturer's instructions. Briefly, BAECs were harvested in PBS containing 1 mmol/L EDTA and centrifuged at 12 000 g. The pellets were lysed in homogenization buffer containing 25 mmol/L Tris, pH 7.4, 1 mmol/L EDTA, and 1 mmol/L EGTA and centrifuged at 12 000 g. Aliquots from the supernatant were used for the measurement of NOS activity through the conversion of [^3H]L-arginine to [^3H]L-citrulline. Data were normalized by the amount of protein and reaction time."}, "[6]": {"tested_on": "eNOS protein", "test": "Immunoblot analysis of eNOS protein in BAECs", "type": "cell-based, bovine", "procedure": "as §1\nCells were washed 3 times with ice-cold PBS, pH 7.4, lysed in 50 mmol/L Tris, pH 7.5, 2 mmol/L EDTA, 0.5 mmol/L EGTA, 2 mmol/L PMSF, 25 μg/mL leupeptin, 0.1 mg/mL aprotinin, 1 mmol/L dithiothreitol, 50 mmol/L NaF, and 1% Triton X-100 (Sigma Chemical Co); scraped from the dish; rotated for 1 hour at 4° C.; and centrifuged for 15 minutes at 14 000 g. Protein concentrations of the supernatant were measured according to the method of Bradford and separated with the use of 6% SDS-PAGE. The membrane was incubated for 1 hour with polyclonal anti-human eNOS antibody (Transduction Laboratories) diluted in PBS containing 0.1% Tween-20 and 1% BSA, washed 3 times for 10 minutes with PBS containing 0.1% Tween-20, and incubated with 0.1 μCi/ML ^125I-protein A (Amersham Life Science, Inc). Protein levels of eNOS were quantified with a PhosphorImager."}, "[7]": {"tested_on": "eNOS mRNA", "test": "eNOS mRNA level in vascular stroma from epididymal fat pads of Zucker rats", "type": "cell-based", "settings": "insulin 100 nmol/L, 6 hours", "procedure": "Vascular stromas were obtained from the epididymal fat pads of 12-week-old Zucker lean and fatty rats (Harlan Sprague Dawley, Inc). Epididymal fat pads were isolated, minced, and incubated with 0.2% collagenase I for 30 minutes at 37° C. Then, they were fractionated with the use of a Dounce homogenizer and centrifuged at 3000 g for 20 minutes to isolate vessels from adipocytes. Vascular stroma were washed with DMEM containing 0.2% BSA and incubated with DMEM containing 0.2% BSA with or without insulin for 6 hours at 37° C. T he purity of the isolated vascular stroma was quantified through immunohistochemical staining with anti-factor VIII antibody and through immunoblotting of the stroma with antibodies to smooth muscle cell alpha-actin. Only preparations that were stained positively in more than 90% of the vessels were used.\nTotal RNA from cultured BAECs, PKCβ1-overexpressed BAECs, and vascular stroma from the epididymal fat pads of Zucker rats were isolated according to the guanidinium thiocyanate-phenol-chloroform method with TRI Reagent (Molecular Research Center) and solution D containing 4 mol/L guanidinium thiocyanate, 25 mmol/L sodium citrate, pH 7.0, 0.5% sarcosyl, and 0.1 mol/L 2-mercaptoethanol. […] The quantification of eNOS mRNA levels was performed with a PhosphorImager (Molecular Dynamics) and normalized to 36B4 mRNA."}},
  "data": [
    {"molecule": "CN(C)C[C@@H]1CCn2cc(c3ccccc32)C2=C(C(=O)NC2=O)c2cn(c3ccccc23)CCO1", "note": "[LY333531, reference compound]", "values": [
      {"measurement": "increase of eNOS mRNA expression", "setting": "[1]; LY333531 20 nmol/L", "value": "60±14", "unit": "%"}
    ]},
    {"molecule": "CCCCCCCCCCCCCC(=O)O[C@@H]1[C@@H](C)[C@@]2(O)[C@@H](C=C(CO)C[C@]3(O)C(=O)C(C)=C[C@@H]23)[C@@H]2C(C)(C)[C@]12OC(C)=O", "note": "[PMA, phorbol-12-myristate-13-acetate, reference compound]", "values": [
      {"measurement": "increase of eNOS mRNA expression", "setting": "[1]; PMA 100 nmol/L, 12 hours", "value": "66±11", "unit": "%"},
      {"measurement": "increase of eNOS mRNA expression", "setting": "[1]; PMA 100 nmol/L, 24 hours", "value": "105±14", "unit": "%"},
      {"measurement": "change of eNOS mRNA level", "setting": "[1]; PMA 100 nmol/L, initial 6 hours", "value": "did not change"},
      {"measurement": "remaining effect of insulin on eNOS mRNA levels after PMA preincubation", "setting": "[1]; preincubated with PMA for 30 minutes, then insulin", "value": "14±13", "unit": "%"},
      {"measurement": "effect on insulin-induced IRS-2-associated PI-3 kinase activity", "setting": "[2]; PMA 100 nmol/L preincubation 30 minutes", "value": "mostly inhibited"},
      {"measurement": "basal PI-3 kinase activity", "setting": "[2]; PMA treatment", "value": "not changed"}
    ]},
    {"molecule": "lysophosphatidylcholine [LPC]", "values": [
      {"measurement": "increase of eNOS mRNA levels", "setting": "[3]; adenovirus-containing β-Gal cells", "value": 4.5, "unit": "fold"},
      {"measurement": "increase of eNOS mRNA levels", "setting": "[3]; control cells", "value": 5, "unit": "fold"},
      {"measurement": "increase of eNOS mRNA", "setting": "[3]; LPC, BAECs infected with the adenoviral-PKCβ1 isoform", "value": 4, "unit": "fold"}
    ]},
    {"molecule": "IGF-1: recombinant insulin-like growth factor-1 (Upstate Biotechnology)", "values": [
      {"measurement": "increase of eNOS mRNA level", "setting": "[4]", "value": "47±10", "unit": "%"}
    ]},
    {"molecule": "insulin: insulin (Sigma Chemical Co), used to stimulate endothelial cells", "values": [
      {"measurement": "NOS activity", "setting": "[5]; after 24 hours", "value": "176±7", "unit": "pmol/mg protein min"},
      {"measurement": "concentration at which maximal effect on eNOS mRNA level was attained", "setting": "[1]", "value": "< 100", "unit": "nmol/L"},
      {"measurement": "response of eNOS mRNA expression", "setting": "[1]; insulin 0.1 nmol/L", "value": "significant increase"},
      {"measurement": "increase of eNOS mRNA level", "setting": "[1]; insulin 10 nmol/L", "value": "50±12", "unit": "%"},
      {"measurement": "maximum effect on eNOS mRNA level (dose response)", "setting": "[1]; insulin 100 nmol/L", "value": 2, "unit": "fold"},
      {"measurement": "increase of eNOS mRNA expression", "setting": "[1]; insulin 100 nmol/L, 1 hour", "value": "33±9", "unit": "%"},
      {"measurement": "increase of eNOS mRNA expression", "setting": "[1]; insulin 100 nmol/L, 6 hours", "value": "71±21", "unit": "%"},
      {"measurement": "maximum increase of eNOS mRNA expression", "setting": "[1]; insulin 100 nmol/L, 12 hours, maintained for 24 hours", "value": 2, "unit": "fold"},
      {"measurement": "increase of eNOS mRNA level compared with control", "setting": "[1]; insulin 100 nmol/L, Example 2", "value": "58±20", "unit": "%"},
      {"measurement": "enhancement of eNOS mRNA expression", "setting": "[3]; insulin 100 nmol/L, BAECs with or without adenovirus containing only β-Gal", "value": "≤ 2", "unit": "fold"},
      {"measurement": "change of eNOS mRNA levels", "setting": "[3]; insulin, cells infected with adenovirus containing the PKCβ1 isoform", "value": "did not increase"},
      {"measurement": "increase of IRS-2-associated PI-3 kinase activity", "setting": "[2]; insulin 100 nmol/L, 5 minutes", "value": "5.4±0.4", "unit": "fold"},
      {"measurement": "increase of eNOS protein level", "setting": "[6]; insulin 100 nmol/L, Example 2", "value": "74±9", "unit": "%"},
      {"measurement": "increase of eNOS protein levels", "setting": "[6]; insulin, 6 hours", "value": "43±16", "unit": "%"},
      {"measurement": "maximum increase of eNOS protein levels", "setting": "[6]; insulin, 24 hours, maintained for 36 hours", "value": 2, "unit": "fold"},
      {"measurement": "increase of eNOS mRNA levels", "setting": "[7]; vascular stroma from Zucker lean rats", "value": "50±16", "unit": "%"},
      {"measurement": "effect on eNOS mRNA levels", "setting": "[7]; vascular stroma from insulin-resistant (Zucker fatty) rats", "value": "ineffective"}
    ]},
    {"molecule": "O=c1cc(N2CCOCC2)oc2c(-c3ccccc3)cccc12", "note": "[LY294002, reference compound]", "values": [
      {"measurement": "decrease of basal eNOS mRNA expression", "setting": "[1]; LY294002 50 nmol/L, without insulin treatment", "value": "30±4", "unit": "%"},
      {"measurement": "decrease of basal eNOS protein level", "setting": "[6]; LY294002 50 nmol/L", "value": "72±5", "unit": "%"}
    ]},
    {"molecule": "CN(C)CCCn1cc(C2=C(c3c[nH]c4ccccc34)C(=O)NC2=O)c2ccccc21", "note": "[GFX, reference compound]", "values": [
      {"measurement": "increase of eNOS mRNA expression", "setting": "[1]; GFX 5 μmol/L without insulin, 6 hours", "value": "38±10", "unit": "%"},
      {"measurement": "increase of eNOS mRNA expression compared with control cells", "setting": "[1]; both insulin and GFX", "value": "76±20", "unit": "%"}
    ]},
    {"molecule": "COC[C@H]1OC(=O)c2coc3c2[C@@]1(C)C1=C(C3=O)[C@@H]2CCC(=O)[C@@]2(C)C[C@H]1OC(C)=O", "note": "[wortmannin, reference compound]", "values": [
      {"measurement": "insulin-induced NOS activity after preincubation with inhibitor", "setting": "[5]; wortmannin 100 nmol/L preincubation for 15 minutes", "value": "123±13", "unit": "pmol/mg protein min"}
    ]}
  ]
}
